# Data reported in US9976141B2, “Compositions and methods for inhibiting gene expression of Hif2alpha” (Arrowhead Madison Inc., priority 2015, dated 2018).
# Strand notation (5' to 3'): a small letter for the sugar, then the base; units joined by * are phosphorothioate-linked, units joined directly phosphodiester-linked; [ ] holds rarer units or linkages, { } end groups; capitals alone tell only the bases. d = 2'-deoxy (DNA); m = 2'-O-methyl; f = 2'-fluoro
# Test system: human EPAS1 (Hif2α) cDNA in psiCHECK2 (Renilla luciferase/EPAS1 fusion mRNA) in Hep3B cells
# Test: Efficacy screen of Hif2α RNAi triggers in vitro, dual-luciferase reporter assay (1 nM and 0.1 nM)
# Type: cell-based
# Details: Hep3B cells co-transfected with EPAS1-psiCHECK2, Renilla luciferase normalized to firefly luciferase
# Description: Candidate sequences were identified by in silico analysis and screened as chemically modified canonical siRNAs in vitro. For screening purposes, the human EPAS1 (Hif2α) cDNA sequence (accession #NM 001430) was synthesized and cloned (DNA 2.0, Menlo Park, Calif.) into a commercially-available reporter-based screening plasmid, psiCHECK2 (Promega, Madison, Wis.) which generated a Renilla luciferase/EPAS1 fusion mRNA. For RNAi trigger efficacy evaluation, Hep3B cells, a human hepatocellular carcinoma line, were plated at 10,000 cells per well in 96-well format. Each of the 187 EPAS1 RNAi triggers, in two subsets, was co-transfected at two concentrations, 1 nM and 0.1 nM, with 25 ng EPAS1-psiCHECK2 plasmid DNA per well and 0.2 μL LipoFectamine 2000 (Life Technologies) per well. Gene knockdown was determined by measuring Renilla luciferase levels normalized to the levels of constitutively-expressed firefly luciferase, also present on the psiCHECK-2 plasmid, using the Dual Luciferase Reporter Assay (Promega, Madison, Wis.) Table 5.
Substance,Relative Rluc-Hif2α (0.1 nM RNAi trigger),Relative Rluc-Hif2α (1 nM RNAi trigger)
2231 (sense fGmAfGmAfCmUfGmUfAmUfGmGfUmCfAmGfCmUfAdT; antisense dTfAmGfCmUfGmAfCmCfAmUfAmCfAmGfUmCfUmCdT*dT; siRNA) [compound 2231],0.544 ± 0.368,0.491 ± 0.198
2232 (sense fCmUfCmCfGmAfCmUfCmCfUmUfCmCfGmAfCmUfAdT; antisense dTfAmGfUmCfGmGfAmAfGmGfAmGfUmCfGmGfAmGdT*dT; siRNA) [compound 2232],0.684 ± 0.061,0.468 ± 0.032
2233 (sense fUmCfCmGfAmCfUmCfCmCfAmGfCmAfUmUfCmGfAdT; antisense dTfCmGfAmAfUmGfCmUfGmGfGmAfGmUfCmGfGmAdT*dT; siRNA) [compound 2233],0.913 ± 0.019,0.862 ± 0.125
2234 (sense fCmGfAmCfUmCfCmCfAmGfCmAfUmUfCmGfAmGfAdT; antisense dTfCmUfCmGfAmAfUmGfCmUfGmGfGmAfGmUfCmGdT*dT; siRNA) [compound 2234],0.508 ± 0.148,0.388 ± 0.046
2235 (sense fGmAfCmUfCmCfCmAfGmCfAmUfUmCfGmAfGmCfAdT; antisense dTfGmCfUmCfGmAfAmUfGmCfUmGfGmGfAmGfUmCdT*dT; siRNA) [compound 2235],0.743 ± 0.129,0.857 ± 0.090
2236 (sense fCmAfGmGfUmGfCmUfCmGfGmCfGmUfCmUfGmAfAdT; antisense dTfUmCfAmGfAmCfGmCfCmGfAmGfCmAfCmCfUmGdT*dT; siRNA) [compound 2236],0.693 ± 0.071,0.761 ± 0.042
2237 (sense fGmUfGmCfUmCfGmGfCmGfUmCfUmGfAmAfCmGfAdT; antisense dTfCmGfUmUfCmAfGmAfCmGfCmCfGmAfGmCfAmCdT*dT; siRNA) [compound 2237],0.746 ± 0.029,0.978 ± 0.083
2238 (sense fUmCfGmGfCmGfUmCfUmGfAmAfCmGfUmCfUmCfAdT; antisense dTfGmAfGmAfCmGfUmUfCmAfGmAfCmGfCmCfGmAdT*dT; siRNA) [compound 2238],0.208 ± 0.023,0.148 ± 0.024
2239 (sense fGmGfCmGfUmCfUmGfAmAfCmGfUmCfUmCfAmAfAdT; antisense dTfUmUfGmAfGmAfCmGfUmUfCmAfGmAfCmGfCmCdT*dT; siRNA) [compound 2239],0.225 ± 0.022,0.157 ± 0.017
2240 (sense fCmGfUmCfUmGfAmAfCmGfUmCfUmCfAmAfAmGfAdT; antisense dTfCmUfUmUfGmAfGmAfCmGfUmUfCmAfGmAfCmGdT*dT; siRNA) [compound 2240],0.841 ± 0.048,0.845 ± 0.052
2241 (sense fAmAfAmAfGmGfAmGfUmAfGmCfUmCfGmGfAmGfAdT; antisense dTfCmUfCmCfGmAfGmCfUmAfCmUfCmCfUmUfUmUdT*dT; siRNA) [compound 2241],0.385 ± 0.028,0.270 ± 0.068
2242 (sense fGmGfGmUfUmUfCmAfUmUfGmCfCmGfUmGfGmUfAdT; antisense dTfAmCfCmAfCmGfGmCfAmAfUmGfAmAfAmCfCmCdT*dT; siRNA) [compound 2242],0.411 ± 0.019,0.222 ± 0.064
2243 (sense fUmUfCmAfUmGfGmGfAmCfUmUfAmCfAmCfAmGfAdT; antisense dTfCmUfGmUfGmUfAmAfGmUfCmCfCmAfUmGfAmAdT*dT; siRNA) [compound 2243],0.688 ± 0.059,0.694 ± 0.107
2244 (sense fGmGfGmAfCmUfUmAfCmAfCmAfGmGfUmGfGmAfAdT; antisense dTfUmCfCmAfCmCfUmGfUmGfUmAfAmGfUmCfCmCdT*dT; siRNA) [compound 2244],0.760 ± 0.050,0.915 ± 0.115
2245 (sense fAmCfAmCfAmGfGmUfGmGfAmGfCmUfAmAfCmAfAdT; antisense dTfUmGfUmUfAmGfCmUfCmCfAmCfCmUfGmUfGmUdT*dT; siRNA) [compound 2245],0.761 ± 0.039,0.727 ± 0.066
2246 (sense fGmAfGmCfUmAfAmCfAmGfGmAfCmAfUmAfGmUfAdT; antisense dTfAmCfUmAfUmGfUmCfCmUfGmUfUmAfGmCfUmCdT*dT; siRNA) [compound 2246],0.509 ± 0.044,0.327 ± 0.042
2247 (sense fGmCfUmAfAmCfAmGfGmAfCmAfUmAfGmUfAmUfAdT; antisense dTfAmUfAmCfUmAfUmGfUmCfCmUfGmUfUmAfGmCdT*dT; siRNA) [compound 2247],0.439 ± 0.082,0.231 ± 0.048

Substance,Relative Rluc-Hif2α (0.1 nM RNAi trigger),Relative Rluc-Hif2α (1 nM RNAi trigger)
2248 (sense fCmUfAmAfCmAfGmGfAmCfAmUfAmGfUmAfUmCfAdT; antisense dTfGmAfUmAfCmUfAmUfGmUfCmCfUmGfUmUfAmGdT*dT; siRNA) [compound 2248],0.215 ± 0.007,0.148 ± 0.036
2249 (sense fGmGfAmCfAmUfAmGfUmAfUmCfUmUfUmGfAmCfAdT; antisense dTfGmUfCmAfAmAfGmAfUmAfCmUfAmUfGmUfCmCdT*dT; siRNA) [compound 2249],0.303 ± 0.042,0.190 ± 0.028
2250 (sense fUmCfUmUfUmGfAmCfUmUfCmAfCmUfCmAfUmCfAdT; antisense dTfGmAfUmGfAmGfUmGfAmAfGmUfCmAfAmAfGmAdT*dT; siRNA) [compound 2250],0.255 ± 0.020,0.139 ± 0.046
2251 (sense fUmCfAmCfUmCfAmUfCmCfCmUfGmCfGmAfCmCfAdT; antisense dTfGmGfUmCfGmCfAmGfGmGfAmUfGmAfGmUfGmAdT*dT; siRNA) [compound 2251],0.857 ± 0.087,0.872 ± 0.121
2252 (sense fGmAfGmAfUmUfCmGfUmGfAmGfAmAfCmCfUmGfAdT; antisense dTfCmAfGmGfUmUfCmUfCmAfCmGfAmAfUmCfUmCdT*dT; siRNA) [compound 2252],0.696 ± 0.096,0.592 ± 0.061
2253 (sense fUmUfCmGfUmGfAmGfAmAfCmCfUmGfAmGfUmCfAdT; antisense dTfGmAfCmUfCmAfGmGfUmUfCmUfCmAfCmGfAmAdT*dT; siRNA) [compound 2253],0.646 ± 0.144,0.564 ± 0.043
2254 (sense fUmCfGmUfGmAfGmAfAmCfCmUfGmAfGmUfCmUfAdT; antisense dTfAmGfAmCfUmCfAmGfGmUfUmCfUmCfAmCfGmAdT*dT; siRNA) [compound 2254],0.756 ± 0.080,0.641 ± 0.054
2255 (sense fGmAfCmAfUmGfUmCfCmAfCmAfGmAfGmCfGmGfAdT; antisense dTfCmCfGmCfUmCfUmGfUmGfGmAfCmAfUmGfUmCdT*dT; siRNA) [compound 2255],0.653 ± 0.130,0.721 ± 0.055
2256 (sense fGmCfGmGfGmAfCmUfUmCfUmUfCmAfUmGfAmGfAdT; antisense dTfCmUfCmAfUmGfAmAfGmAfAmGfUmCfCmCfGmCdT*dT; siRNA) [compound 2256],0.796 ± 0.028,0.765 ± 0.124
2257 (sense fGmGfAmUfGmAfAmGfUmGfCmAfCmGfGmUfCmAfAdT; antisense dTfUmGfAmCfCmGfUmGfCmAfCmUfUmCfAmUfCmCdT*dT; siRNA) [compound 2257],0.647 ± 0.127,0.802 ± 0.044
2258 (sense fCmAfCmGfGmUfCmAfCmCfAmAfCmAfGmAfGmGfAdT; antisense dTfCmCfUmCfUmGfUmUfGmGfUmGfAmCfCmGfUmGdT*dT; siRNA) [compound 2258],0.882 ± 0.098,0.972 ± 0.168
2259 (sense fUmCfAmCfCmAfAmCfAmGfAmGfGmCfCmGfUmAfAdT; antisense dTfUmAfCmGfGmCfCmUfCmUfGmUfUmGfGmUfGmAdT*dT; siRNA) [compound 2259],0.743 ± 0.086,0.836 ± 0.110
2260 (sense fCmAfCmCfAmAfCmAfGmAfGmGfCmCfGmUfAmCfAdT; antisense dTfGmUfAmCfGmGfCmCfUmCfUmGfUmUfGmGfUmGdT*dT; siRNA) [compound 2260],0.861 ± 0.031,1.030 ± 0.187
2261 (sense fAmGfGmCfCmGfUmAfCmUfGmUfCmAfAmCfCmUfAdT; antisense dTfAmGfGmUfUmGfAmCfAmGfUmAfCmGfGmCfCmUdT*dT; siRNA) [compound 2261],0.568 ± 0.065,0.657 ± 0.067
2262 (sense fUmCfCmUfCmAfCmAfAmUfAmGfUmCfUmGfUmGfAdT; antisense dTfCmAfCmAfGmAfCmUfAmUfUmGfUmGfAmGfGmAdT*dT; siRNA) [compound 2262],0.755 ± 0.031,0.277 ± 0.071
2263 (sense fAmAfUmAfGmUfCmUfGmUfGmUfGmGfCmUfAmCfAdT; antisense dTfGmUfAmGfCmCfAmCfAmCfAmGfAmCfUmAfUmUdT*dT; siRNA) [compound 2263],1.126 ± 0.083,0.875 ± 0.059
